According to PubChem BioAssay (NCI):
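1) Cells in 96-well plates. 2) Compound, 48 h, 5 concentrations. 3) Linear interpolation between surrounding doses. 4) Unreached endpoint = highest concentration. The concentration for full growth arrest is given as TGI.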

Key:
Assay in all cases: growth of human tumour cells (NCI), 48 h
[1] = test system: HOP-92 NSCLC
[2] = test system: 786-0 renal
[3] = test system: SF-539 CNS
[4] = test system: SF-268 CNS
[5] = test system: IGROV1 ovarian
[6] = test system: HCC-2998 colon
[7] = test system: OVCAR-3 ovarian
[8] = test system: NCI-H460 lung
[9] = test system: MDA-MB-231 breast
[10] = test system: CAKI-1 renal

Structure (SMILES)	TGI [1]	TGI [2]	TGI [3]	TGI [4]	TGI [5]	TGI [6]	TGI [7]	TGI [8]	TGI [9]	TGI [10]
COc1cc(/C=[N+](\[O-])c2ccccc2Cl)ccc1OC(=S)S	49.2 µM	> 100 µM	> 100 µM	> 100 µM	> 100 µM	> 100 µM	> 100 µM	> 100 µM	> 100 µM	> 100 µM
CC(=O)[C@H]1CC[C@@H]2[C@]1(C)CC=C1[C@]23C=C[C@]2(C[C@@H](O)CC[C@]12C)C(C(=O)O)C3C(=O)O (stereo not given in full)	> 100 µM	> 100 µM	> 100 µM	> 100 µM	> 100 µM	> 100 µM	> 100 µM	> 100 µM	> 100 µM	> 100 µM
O=S1(=O)OCCOS(=O)(=O)C1C1c2ccccc2-c2ccccc21	> 100 µM	> 100 µM	> 100 µM	> 100 µM	> 100 µM	> 100 µM	> 100 µM	33.7 µM	> 100 µM	98.5 µM
O=C1C(Nc2ccc(S(=O)(=O)Nc3cnc4ccccc4n3)cc2)=CC(=Nc2ccc(S(=O)(=O)Nc3cnc4ccccc4n3)cc2)c2ccccc21	28.7 µM	31.6 µM	35.7 µM	38.2 µM	37.4 µM	31.3 µM	47.6 µM	31.7 µM	70.2 µM	31.2 µM
CCN1CCC(O)(/C=C/c2ccc(Cl)c(Cl)c2)C(C(=O)/C=C/c2ccc(Cl)c(Cl)c2)C1 (stereo not given)	1.58 µM	2.7 µM	3.55 µM	2.54 µM	1.71 µM	3.25 µM	1.91 µM	2.02 µM	1.6 µM	3.21 µM
CCOC(=O)/C(C(N)=O)=C(/O)c1cnccn1	> 100 µM	> 100 µM	> 100 µM	> 100 µM	> 100 µM	> 100 µM	> 100 µM	> 100 µM	> 100 µM	> 100 µM
COc1ccc(C2=Nn3c(nc4sc5c(c4c3=O)CCCC5)SC2)cc1	> 100 µM	> 100 µM	> 100 µM	> 100 µM	> 100 µM	> 100 µM	> 100 µM	> 100 µM	> 100 µM	> 100 µM
c1ccc(C(OCCN2CC3CCC(C2)N3)c2ccccc2)cc1	75.6 µM	> 100 µM	> 100 µM	> 100 µM	> 100 µM	32.3 µM	> 100 µM	> 100 µM	> 100 µM	> 100 µM
CCc1c[n+]2c(cc1C1=CN3c4ccccc4[C@]45CCN6C/C(=C/CO)[C@H](C[C@H]64)[C@@H]([C@@H]1O)[C@H]35)-c1[nH]c3ccccc3c1CC2	> 50 µM	> 50 µM	> 50 µM	> 50 µM	> 50 µM	> 50 µM	> 50 µM	> 50 µM	> 50 µM	> 50 µM
COc1cc2c(cc1OC)C/C(=N\O)c1cc(OC)c(OC)cc1/C=C\2	> 100 µM	> 100 µM	18 µM	> 100 µM	72.8 µM	31.8 µM	17.3 µM	> 29.4 µM	> 29.3 µM	> 29.4 µM
CCOC(=O)C(NS(=O)(=O)c1ccccc1)(C(F)(F)F)P(=O)(OCC(C)C)OCC(C)C (stereo not given)	> 100 µM	> 100 µM	> 100 µM	> 100 µM	> 100 µM	> 100 µM	> 100 µM	> 100 µM	> 100 µM	> 100 µM
Cc1ccnc2[nH]c(-c3ccc(Cl)cc3)cc(=O)c12	> 100 µM	> 100 µM	> 100 µM	> 100 µM	> 100 µM	> 100 µM	99.1 µM	> 100 µM	> 100 µM	> 100 µM
O=C(O)Cn1cnc2c(=O)[nH]c(Nc3ccccc3)nc21	> 100 µM	> 100 µM	> 100 µM	> 100 µM	> 100 µM	> 100 µM	> 100 µM	> 100 µM	> 100 µM	> 100 µM
CCOP(=O)(OCC)C(Cc1cn(S(=O)(=O)c2ccc(C)cc2)cn1)C(=O)O (stereo not given)	> 100 µM	> 100 µM	> 100 µM	> 100 µM	> 100 µM	> 100 µM	> 100 µM	> 100 µM	> 100 µM	> 100 µM
CN(CCCNC(=O)c1[nH]nc2c1ccc1ccccc12)CCCNC(=O)c1[nH]nc2c1ccc1ccccc12	28.3 µM	22.9 µM	24 µM	28.1 µM	30.9 µM	4.13 µM	29 µM	38 µM	23.4 µM	33.6 µM
O=c1oc2c(Cl)cc(Cl)cc2cc1-c1cn2c(n1)sc1ccccc12	> 100 µM	> 100 µM	> 100 µM	> 100 µM	> 100 µM	95 µM	> 100 µM	> 100 µM	> 100 µM	> 100 µM
COc1cc([C@@H]2c3cc4c(cc3[C@H](OC3OC5COC(C(C)C)OC5C(O)C3O)C3COC(=O)[C@@H]32)OCO4)cc(OC)c1OC (stereo not given in full)	24.6 µM	12.5 µM	> 25.9 µM	> 100 µM	12.5 µM	21.7 µM	8.55 µM	7.18 µM	19.2 µM	17.5 µM
Cc1cc2nc3c(C)c4ccccc4c(C)n3c2cc1C	8.45 µM	6.62 µM	4.88 µM	> 10 µM	> 10 µM	> 10 µM	7.8 µM	4.84 µM	7.51 µM	> 10 µM
